Legend:
VEGFR2 = VEGFR2 (Homo sapiens (Human), UniProt P35968); experiment: Inhibitory activity of VEGFR2 kinase (HTRF KinEASE-TK kit); assay type: biochemical; conditions: for IC50: ATP 5 μM, 20 minutes, room temperature; for IC50 value as fold of that of Comparative compound 2 / IC50 value as fold of that of Sorafenib (free base): ratio of IC50
Method: HTRF®KinEASE™-TK kit (Cat.62TKOPEC, Cisbio);
VEGFR2 (Cat: k2643, Sigma);
2.1 Preparation of VEGFR2 Kinase Reagent
1× kinase buffer: 1 mL 1× kinase buffer contained 200 μL 5× kinase buffer (Invitrogen), 5 μL, 1M MgCl2, 1 μL 1M DTT, 1 μL 1M MnCl2, and 793 μL ddH2O;
5×TK substrate-biotin and ATP working fluid: as the concentrations of TK substrate-biotin and ATP, please refer to Table 1. TK substrate-biotin and ATP were diluted with 1× kinase buffer to 5 folds of the reaction concentrations;
5× kinase working fluid: as the concentration of VEGFR2 kinase, please refer to Table 1. 5× kinase working fluid was prepared with 1× Kinase buffer;
4× Sa-XL665 working fluid: as the concentration of Sa-XL665 (Cisbio) in the reaction, please refer to Table 1. The 4× Sa-XL665 working fluid was prepared with assay buffer (Cisbio);
4×TK Ab-cryptate working fluid: TK Ab-Cryptate (Cisbio) was 100-fold diluted with assay buffer (Cisbio), as working fluid;
Experimental Procedure of HTRF KinEASE TK Kit
After all the reagents were prepared as described above, the reagents except for enzymes were equilibrated to room temperature, then adding samples were performed.
TK substrate-biotin, ATP, VEGFR2 kinase and a compound at a certain concentration were reacted in 1× kinase buffer at room temperature for 20 minutes. […] To all the reaction wells, 5 μl 4× Sa-XL665 working fluid and 5 μl 4×TK Ab-cryptate working fluid were added. After reacting at room temperature for 1 hours, fluorescence signal (excited at 320 nm, emitted at 665 nm, 615 nm) was detected by ENVISION detector (Perkinelmer). Based on the full-active well and the background signal well, the inhibition rate for each well was calculated, and the average value was used for duplicate wells. The half maximal inhibitory concentration (IC50) for each test compound was fitted by professional software Graphpad PRISM 5.0.
2.3 Data Analysis Emission light ratio (ER)=665 nm emission signal/615 nm emission signal Inhibition rate=(ERpositive−ERsample)/(ERpositive−ERnegative)*100%
HTRF KinEASE TK kit was used to determine the IC50 value of a compound for kinase VEGFR2. The final concentration of the compound started from 100 μM, and 4-fold gradient dilution was carried out to provide 10 concentrations. Duplicate wells were used for each concentration. The final concentration of DMSO was controlled to 1% in the reaction system.

[1] = test system: human renal cancer 786-O transplantation; experiment: Effect on tumor weight of human renal cancer 786-O transplantation nude mice (Comparative Experimental Example 1); assay type: in vivo; conditions: QD × 14 days
Excerpt: Comparative Experimental Example 1
The well grown 786-O solid tumor was cut into a mass of an average volume of about 1 mm^3 under aseptic conditions, and was used to inoculate nude mouse at axillary cavity of right forelimb subcutaneously via a trocar. The tumor growth state was observed regularly until the tumor grew into a volume of 250˜550 mm^3.
(§1) Animals with tumors of a too large or too small volume and an irregular shape were discarded. Tumor-bearing mice with a tumor volume of 250˜550 mm^3 in a good state were selected, 48 mice in total, and were divided into 6 groups, which were 1 solvent control group, 3 positive control groups, and 2 test sample groups. Both the positive control group and the test sample group were administered intragastrically once a day; the solvent control group was administered with 12.5% ethanol & 12.5% water solution of polyoxyethylene castor oil once a day; intragastrical volume was 10 mL/kg.
(§2) In the period of administration, tumor diameter was measured twice every week, tumor volume was calculated, and animal body weight was recorded. Animal state was observed when administered, and abnormal state was recorded.
Animal was sacrificed with CO2, and tumor was peeled off, weighed, and photographed. Animal was subjected to gross anatomy, and organs were observed by eyes to find if they were normal or not.
(§3) Observation Indexes: Tumor weight inhibiting rate (IR)=(WC−WT)/WC
Wherein WC and WT represented the average tumor weight of solvent control group and the average tumor weight of drug administration group, respectively.
Experimental data was subjected to calculation and relevant statistic processing by Microsoft Office Excel 2003 software. Unless otherwise specified, data was represented as Mean±Standard Error (Mean±S.E), and t-test is used in the comparison between two groups.

[2] = test system: human colon cancer HCT-116 transplantation; experiment: Effect on tumor weight of human colon cancer HCT-116 transplantation nude mice (Comparative Experiment Example 2); assay type: in vivo; conditions: QD × 17 day
Excerpt: Comparative Experiment Example 2
Under aseptic conditions, the well grown human HCT-116 cell suspension in logarithmic growth phase was used to inoculate nude mouse at axillary cavity of right forelimb subcutaneously via an injector. The tumor growth state was observed regularly until the tumor grew to a volume of 100˜300 mm^3.
as §1, with “48” for “Animals with tumors of a too large or too small volume and an irregular shape were discarded.”, “100˜300” for “250˜550”, “mm^3” for “mm^3 in a good state”, “selected” for “selected, 48 mice in total,”, “and” for “and were”
as §2
Animal was sacrificed with CO2, and tumor mass was peeled off, weighed, and photographed. After photographed, each tumor mass was cut into two parts, wherein one was stored in 4% paraformaldehyde, and the other was packaged into a freezing tube, and frozen in liquid nitrogen. Animal was subjected to gross anatomy, and organs were observed by eyes to find if they were normal or not.
as §3
wherein WC and WT represented the average tumor weight of solvent control group and the average tumor weight of drug administration group, respectively.
Experimental data was subjected to calculation and relevant statistic processing by Microsoft Office Excel 2003 software. Unless otherwise specified, data was represented as Mean±Standard Error (Mean±S.E.), and t-test is used in the comparison between two groups.

VEGFR2, sequence (P35968 20-1356): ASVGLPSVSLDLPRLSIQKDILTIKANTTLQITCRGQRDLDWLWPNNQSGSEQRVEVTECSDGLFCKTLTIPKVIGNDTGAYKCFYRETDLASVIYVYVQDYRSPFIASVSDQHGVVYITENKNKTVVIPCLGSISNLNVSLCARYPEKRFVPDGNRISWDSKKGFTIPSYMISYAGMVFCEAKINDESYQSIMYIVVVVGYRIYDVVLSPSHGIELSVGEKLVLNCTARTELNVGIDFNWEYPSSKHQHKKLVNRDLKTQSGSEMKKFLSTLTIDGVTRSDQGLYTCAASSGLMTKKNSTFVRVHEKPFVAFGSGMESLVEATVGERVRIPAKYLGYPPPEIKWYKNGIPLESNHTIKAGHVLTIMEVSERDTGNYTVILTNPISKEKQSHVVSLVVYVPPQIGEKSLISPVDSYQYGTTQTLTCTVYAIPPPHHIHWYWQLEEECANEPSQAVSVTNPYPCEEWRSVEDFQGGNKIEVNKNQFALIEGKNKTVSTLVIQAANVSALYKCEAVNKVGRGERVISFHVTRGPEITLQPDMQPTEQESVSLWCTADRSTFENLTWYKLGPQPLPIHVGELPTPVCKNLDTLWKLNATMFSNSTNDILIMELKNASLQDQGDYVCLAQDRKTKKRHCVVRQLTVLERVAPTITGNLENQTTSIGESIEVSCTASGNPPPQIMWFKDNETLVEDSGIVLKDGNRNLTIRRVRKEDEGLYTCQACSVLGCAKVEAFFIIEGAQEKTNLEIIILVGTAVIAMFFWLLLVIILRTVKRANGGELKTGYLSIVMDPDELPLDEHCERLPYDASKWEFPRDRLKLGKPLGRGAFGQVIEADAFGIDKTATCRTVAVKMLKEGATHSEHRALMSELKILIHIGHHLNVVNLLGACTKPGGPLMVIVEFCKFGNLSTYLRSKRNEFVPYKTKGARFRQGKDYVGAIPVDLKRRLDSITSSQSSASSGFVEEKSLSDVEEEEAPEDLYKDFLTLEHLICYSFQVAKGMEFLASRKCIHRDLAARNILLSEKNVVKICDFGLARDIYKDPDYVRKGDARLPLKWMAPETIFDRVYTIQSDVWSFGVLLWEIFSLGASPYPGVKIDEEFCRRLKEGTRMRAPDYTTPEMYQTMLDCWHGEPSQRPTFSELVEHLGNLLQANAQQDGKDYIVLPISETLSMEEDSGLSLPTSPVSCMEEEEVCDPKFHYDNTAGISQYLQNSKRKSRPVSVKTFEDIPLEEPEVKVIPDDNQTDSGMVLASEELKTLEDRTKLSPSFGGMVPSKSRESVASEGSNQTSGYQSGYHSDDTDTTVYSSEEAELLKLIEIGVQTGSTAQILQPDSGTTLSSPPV

**Q.** For `COc1c(Oc2ccc(NC(=O)Nc3ccc(Cl)c(C(F)(F)F)c3)cc2)ccnc1-c1cnn(C)c1` [Example 8, 1-(4-chloro-3-(trifluoromethyl)phenyl)-3-(4-(3-methoxy-2-(1-methyl-pyrazol-4-yl)-pyridin-4-yl-oxy)phenyl)urea], which IC50 (VEGFR2) is on record?
**A.** 417 nM

**Q.** Which results are given for `Cn1cc(-c2nccc(Oc3ccc(NC(=O)Nc4ccc(Cl)c(C(F)(F)F)c4)c(F)c3)c2Cl)cn1` [Example 3, 1-(4-chloro-3-(trifluoromethyl)phenyl)-3-(4-(3-chloro-2-(1-methyl-pyrazol-4-yl)-pyridin-4-yl-oxy)-2-fluorophenyl)urea]?
**A.** IC50 (VEGFR2): 222 nM; inhibitory activity as fold of that of Sorafenib (VEGFR2; VEGFR2 kinase): 1.5 fold; IC50 value as fold of that of Comparative compound 2 (VEGFR2; VEGFR2 kinase): comparable; IC50 value as fold of that of Sorafenib (free base) (VEGFR2; VEGFR2 kinase): 2.5 fold

**Q.** What does the source list for `Cn1cc(-c2cc(Oc3ccc(NC(=O)Nc4ccc(Cl)c(C(F)(F)F)c4)cc3)ccn2)cn1` [Comparative example 2, 1-(4-chloro-3-(trifluoromethyl)phenyl)-3-(4-(2-(1-methyl-pyrazol-4-yl)-pyridin-4-yl-oxy)phenyl)urea]?
**A.** IC50 (VEGFR2): 188 nM; Tumor weight Mean ± S.E ([1]; 20 mg/kg po, sorafenib as p-toluenesulfonate, FD-1210005 free form): 0.1892 ± 0.0253 g; Tumor-inhibiting rate ([1]; 20 mg/kg po, sorafenib as p-toluenesulfonate, FD-1210005 free form, listed as Comparative compound 2): 80%; Tumor-inhibiting rate ([1]; 20 mg/kg po, sorafenib as p-toluenesulfonate, FD-1210005 free form, listed as FD-1210005): 79.78%; Tumor weight Mean ± S.E ([1]; 60 mg/kg po, sorafenib as p-toluenesulfonate, FD-1210005 free form): 0.1897 ± 0.0192 g; Tumor-inhibiting rate ([1]; 60 mg/kg po, sorafenib as p-toluenesulfonate, FD-1210005 free form, listed as Comparative compound 2): 80%; Tumor-inhibiting rate ([1]; 60 mg/kg po, sorafenib as p-toluenesulfonate, FD-1210005 free form, listed as FD-1210005): 79.73%; Tumor weight Mean ± S.E ([2]; 20 mg/kg Ig, sorafenib as p-toluenesulfonate, FD-1210005 free form): 0.3283 ± 0.0404 g; Tumor-inhibiting rate ([2]; 20 mg/kg Ig, sorafenib as p-toluenesulfonate, FD-1210005 free form, listed as Comparative compound 2): 67%; Tumor-inhibiting rate ([2]; 20 mg/kg Ig, sorafenib as p-toluenesulfonate, FD-1210005 free form, listed as FD-1210005): 66.91%; Tumor weight Mean ± S.E ([2]; 60 mg/kg Ig, sorafenib as p-toluenesulfonate, FD-1210005 free form): 0.2829 ± 0.0309 g; Tumor-inhibiting rate ([2]; 60 mg/kg Ig, sorafenib as p-toluenesulfonate, FD-1210005 free form, listed as Comparative compound 2): 71%; Tumor-inhibiting rate ([2]; 60 mg/kg Ig, sorafenib as p-toluenesulfonate, FD-1210005 free form, listed as FD-1210005): 71.49%

**Q.** With `Cn1cc(-c2cc(Oc3ccc(NC(=O)Nc4ccc(Cl)c(C(F)(F)F)c4)cc3)c(F)cn2)cn1` [Comparative example 3, 1-(4-chloro-3-(trifluoromethyl)phenyl)-3-(4-(2-(1-methyl-pyrazol-4-yl)-5-fluoro-pyridin-4-yl-oxy)phenyl)urea, reference compound] as the compound, how does the IC50 (VEGFR2) read?
**A.** 437 nM

**Q.** Which results are given for `Cn1cc(-c2nccc(Oc3ccc(NC(=O)Nc4ccc(Cl)c(C(F)(F)F)c4)cc3)c2C#N)cn1` [Example 4, 1-(4-chloro-3-(trifluoromethyl)phenyl)-3-(4-(3-cyano-2-(1-methyl-pyrazol-4-yl)-pyridin-4-yl-oxy)phenyl)urea]?
**A.** IC50 (VEGFR2): 68.5 nM; inhibitory activity as fold of that of Comparative compound 2 (VEGFR2; VEGFR2 kinase): 2.7 fold; inhibitory activity as fold of that of Sorafenib (VEGFR2; VEGFR2 kinase): 1.3 fold; IC50 value as fold of that of Comparative compound 2 (VEGFR2; VEGFR2 kinase): 0.36 fold; IC50 value as fold of that of Sorafenib (free base) (VEGFR2; VEGFR2 kinase): 0.75 fold

**Q.** How did the IC50 (VEGFR2) turn out when `CNc1c(Oc2ccc(NC(=O)Nc3ccc(Cl)c(C(F)(F)F)c3)cc2)ccnc1-c1cnn(C)c1` [Example 7, 1-(4-chloro-3-(trifluoromethyl)phenyl)-3-(4-(3-methylamino-2-(1-methyl-pyrazol-4-yl)-pyridin-4-yl-oxy)phenyl)urea] was run?
**A.** 656 nM

**Q.** How did the IC50 (VEGFR2) turn out when `Cc1c(Oc2ccc(NC(=O)Nc3ccc(Cl)c(C(F)(F)F)c3)cc2)ccnc1-c1cnn(C)c1` [Example 5, 1-(4-chloro-3-(trifluoromethyl)phenyl)-3-(4-(3-methyl-2-(1-methyl-pyrazol-4-yl)-pyridin-4-yl-oxy)phenyl)urea] was run?
**A.** 317 nM

**Q.** For `Cn1cc(-c2nccc(Oc3ccc(NC(=O)Nc4ccc(Cl)c(C(F)(F)F)c4)cc3)c2N)cn1` [Example 6, 1-(4-chloro-3-(trifluoromethyl)phenyl)-3-(4-(3-amino-2-(1-methyl-pyrazol-4-yl)-pyridin-4-yl-oxy)phenyl)urea], which IC50 (VEGFR2) is on record?
**A.** 215 nM

**Q.** Which “Tumor weight Mean ± S.E” value ([1]; 40 mg/kg po) does the source give for `CCN(CC)CCNC(=O)c1c(C)[nH]c(/C=C2\C(=O)Nc3ccc(F)cc32)c1C` [Sunitinib] here?
**A.** 0.1825 ± 0.0213 g

**Q.** What about the Tumor-inhibiting rate ([1]; 40 mg/kg po) of the same compound?
**A.** 80.49%

**Q.** What about the “Tumor weight Mean ± S.E” value ([2]; 40 mg/kg Ig) of the same compound?
**A.** 0.3890 ± 0.0453 g

**Q.** What about the Tumor-inhibiting rate ([2]; 40 mg/kg Ig) of the same compound?
**A.** 60.80%

**Q.** How did the IC50 (VEGFR2) turn out when `COc1cc(Oc2ccc(NC(=O)Nc3ccc(Cl)c(C(F)(F)F)c3)cc2)cc(-c2cnn(C)c2)n1` [Comparative example 5, 1-(4-chloro-3-(trifluoromethyl)phenyl)-3-(4-(2-(1-methyl-pyrazol-4-yl)-6-methoxy-pyridin-4-yl-oxy)phenyl)urea, reference compound] was run?
**A.** 2390 nM

**Q.** Which IC50 (VEGFR2) does the source give for `Cn1cc(-c2cc(Oc3ccc(NC(=O)Nc4ccc(Cl)c(C(F)(F)F)c4)cc3)c(Cl)cn2)cn1` [Comparative example 4, 1-(4-chloro-3-(trifluoromethyl)phenyl)-3-(4-(2-(1-methyl-pyrazol-4-yl)-5-chloro-pyridin-4-yl-oxy)phenyl)urea, reference compound] here?
**A.** 20500 nM

— US9902709B2, “Polysubstituted pyridine compound, preparation method, use and pharmaceutical composition” (PEKING UNIVERSITY FOUNDER GROUP CO., LTD., priority 2014, dated 2018)
